Source: PubChem BioAssay (NCI)
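All cell lines were grown in 96-well plates and treated with compound for 48 hours. GI50 is the concentration that inhibits growth by half. At the TGI there is no net growth.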

What was measured:
Experiment in all cases: DTP human tumour cell line panel, 48 h
[1] = tested on: OVCAR-3 ovarian
[2] = tested on: MCF7 breast
[3] = tested on: HCT-15 colon
[4] = tested on: UO-31 renal
[5] = tested on: RXF 393 renal
[6] = tested on: U251 CNS
[7] = tested on: M14 melanoma
[8] = tested on: SNB-19 CNS
[9] = tested on: HS 578T breast
[10] = tested on: CAKI-1 renal
[11] = tested on: NCI-H23 lung
[12] = tested on: UACC-257 melanoma
[13] = tested on: UACC-62 melanoma
[14] = tested on: SK-MEL-5 melanoma
[15] = tested on: MALME-3M melanoma
[16] = tested on: SR leukemia
[17] = tested on: ACHN renal
[18] = tested on: A549 NSCLC
[19] = tested on: SK-OV-3 ovarian
[20] = tested on: COLO 205 colon
[21] = tested on: DU-145 prostate
[22] = tested on: PC-3 prostate
[23] = tested on: BT-549 breast
[24] = tested on: T-47D breast
[25] = tested on: SK-MEL-2 melanoma
[26] = tested on: TK-10 renal
[27] = tested on: SF-268 CNS
[28] = tested on: MDA-MB-435
[29] = tested on: SNB-75 CNS
[30] = tested on: IGROV1 ovarian
[31] = tested on: NCI/ADR-RES ovarian
[32] = tested on: HT29 colon
[33] = tested on: OVCAR-8 ovarian
[34] = tested on: SK-MEL-28 melanoma
[35] = tested on: LOX IMVI melanoma
[36] = tested on: OVCAR-5 ovarian
[37] = tested on: HL-60(TB) leukemia
[38] = tested on: HOP-92 NSCLC
[39] = tested on: NCI-H226 lung
[40] = tested on: SF-295 CNS
[41] = tested on: KM12 colon
[42] = tested on: MDA-MB-468 breast
[43] = tested on: SW-620 colon
[44] = tested on: MDA-MB-231 breast
[45] = tested on: SN12C renal
[46] = tested on: RPMI-8226 leukemia
[47] = tested on: NCI-H522 lung
[48] = tested on: 786-0 renal
[49] = tested on: HCC-2998 colon
[50] = tested on: HCT-116 colon
[51] = tested on: MOLT-4 leukemia
[52] = tested on: NCI-H460 lung
[53] = tested on: A498 renal
[54] = tested on: SF-539 CNS
[55] = tested on: EKVX NSCLC

With `O/N=C(\CSc1nnc(-c2c[nH]c3ccccc23)n1-c1ccccc1)c1ccc(Cl)cc1` as the compound, how does the GI50 [1] read?
The GI50 was 4.58 µM.

What about the TGI [1] of the same compound?
Its TGI is 32.4 µM.

And the GI50 [2]?
The GI50 was 3.63 µM.

And the TGI [2]?
The TGI was 21.6 µM.

And the GI50 [3]?
The GI50 was 3.2 µM.

What about the TGI [3] of the same compound?
Its TGI is 13.6 µM.

What about the GI50 [4] of the same compound?
Its GI50 is 2.88 µM.

And the TGI [4]?
The TGI was 15.7 µM.

What about the GI50 [5] of the same compound?
Its GI50 is 2.22 µM.

And the TGI [5]?
The TGI was 6.29 µM.

And the GI50 [6]?
The GI50 was 4.73 µM.

What about the TGI [6] of the same compound?
Its TGI is 81.2 µM.

What about the GI50 [7] of the same compound?
The GI50 was 3.16 µM.

What about the TGI [7] of the same compound?
Its TGI is 14.1 µM.

What about the GI50 [8] of the same compound?
Its GI50 is 6.89 µM.

What about the TGI [8] of the same compound?
The TGI was 45.2 µM.

What about the GI50 [9] of the same compound?
The GI50 was 3.09 µM.

And the TGI [9]?
The TGI was 16.6 µM.

What about the GI50 [10] of the same compound?
Its GI50 is 2.93 µM.

And the TGI [10]?
The TGI was 12.4 µM.

What about the GI50 [11] of the same compound?
Its GI50 is 6.51 µM.

And the TGI [11]?
The TGI was greater than 100 µM.

What about the GI50 [12] of the same compound?
Its GI50 is 4.67 µM.

What about the TGI [12] of the same compound?
Its TGI is 87.8 µM.

And the GI50 [13]?
Its GI50 is 2.62 µM.

What about the TGI [13] of the same compound?
Its TGI is 10.1 µM.

What about the GI50 [14] of the same compound?
The GI50 was 3.87 µM.

What about the TGI [14] of the same compound?
Its TGI is 19.5 µM.

And the GI50 [15]?
Its GI50 is 4.99 µM.

What about the TGI [15] of the same compound?
The TGI was 27.5 µM.

What about the GI50 [16] of the same compound?
The GI50 was 4.74 µM.

What about the TGI [16] of the same compound?
The TGI was greater than 100 µM.

What about the GI50 [17] of the same compound?
Its GI50 is 3.69 µM.

And the TGI [17]?
The TGI was 14.5 µM.

What about the GI50 [18] of the same compound?
Its GI50 is 3.35 µM.

What about the TGI [18] of the same compound?
The TGI was 16.8 µM.

What about the GI50 [19] of the same compound?
Its GI50 is 3.38 µM.

What about the TGI [19] of the same compound?
The TGI was 12.4 µM.

What about the GI50 [20] of the same compound?
Its GI50 is 4.47 µM.

What about the TGI [20] of the same compound?
Its TGI is 25.9 µM.

And the GI50 [21]?
The GI50 was 2.59 µM.

What about the TGI [21] of the same compound?
The TGI was 6.32 µM.

And the GI50 [22]?
Its GI50 is 2.31 µM.

And the TGI [22]?
The TGI was 7.29 µM.

And the GI50 [23]?
Its GI50 is 3.71 µM.

What about the TGI [23] of the same compound?
The TGI was 11.1 µM.

What about the GI50 [24] of the same compound?
Its GI50 is 3.6 µM.

And the TGI [24]?
Its TGI is 31.4 µM.

What about the GI50 [25] of the same compound?
Its GI50 is 3.64 µM.

And the TGI [25]?
Its TGI is 17.1 µM.

And the GI50 [26]?
Its GI50 is 3.7 µM.

What about the TGI [26] of the same compound?
The TGI was 17.7 µM.

And the GI50 [27]?
Its GI50 is 2.11 µM.

What about the TGI [27] of the same compound?
Its TGI is 5.08 µM.

What about the GI50 [28] of the same compound?
Its GI50 is 1.74 µM.

What about the TGI [28] of the same compound?
Its TGI is 3.41 µM.

What about the GI50 [29] of the same compound?
The GI50 was 1.68 µM.

What about the TGI [29] of the same compound?
The TGI was 5.8 µM.

And the GI50 [30]?
Its GI50 is 5.35 µM.

What about the TGI [30] of the same compound?
Its TGI is 19.8 µM.

What about the GI50 [31] of the same compound?
Its GI50 is 2.95 µM.

And the TGI [31]?
The TGI was 9.5 µM.

What about the GI50 [32] of the same compound?
Its GI50 is 3.04 µM.

What about the TGI [32] of the same compound?
Its TGI is 11.8 µM.

And the GI50 [33]?
The GI50 was 3.72 µM.

What about the TGI [33] of the same compound?
Its TGI is 15.8 µM.

And the GI50 [34]?
Its GI50 is 4.41 µM.

What about the TGI [34] of the same compound?
The TGI was greater than 100 µM.

And the GI50 [35]?
Its GI50 is 1.72 µM.

And the TGI [35]?
Its TGI is 3.12 µM.

And the GI50 [36]?
Its GI50 is 3.37 µM.

What about the TGI [36] of the same compound?
The TGI was 11.4 µM.

And the GI50 [37]?
The GI50 was 2.17 µM.

What about the TGI [37] of the same compound?
Its TGI is 6.34 µM.

And the GI50 [38]?
The GI50 was 3.84 µM.

What about the TGI [38] of the same compound?
Its TGI is 37.6 µM.

And the GI50 [39]?
The GI50 was 3.98 µM.

And the TGI [39]?
Its TGI is 17.6 µM.

And the GI50 [40]?
The GI50 was 3.11 µM.

And the TGI [40]?
Its TGI is 13.4 µM.

What about the GI50 [41] of the same compound?
The GI50 was 4.72 µM.

What about the TGI [41] of the same compound?
Its TGI is greater than 100 µM.

What about the GI50 [42] of the same compound?
The GI50 was 1.72 µM.

And the TGI [42]?
The TGI was 3.47 µM.

And the GI50 [43]?
The GI50 was 3.08 µM.

And the TGI [43]?
The TGI was 16.1 µM.

What about the GI50 [44] of the same compound?
The GI50 was 1.87 µM.

What about the TGI [44] of the same compound?
The TGI was 3.66 µM.

And the GI50 [45]?
Its GI50 is 3.79 µM.

And the TGI [45]?
Its TGI is 16.3 µM.

And the GI50 [46]?
The GI50 was 2.38 µM.

What about the TGI [46] of the same compound?
The TGI was 7.29 µM.

What about the GI50 [47] of the same compound?
The GI50 was 3.11 µM.

What about the TGI [47] of the same compound?
The TGI was 12.5 µM.

And the GI50 [48]?
Its GI50 is 7.29 µM.

And the TGI [48]?
The TGI was greater than 100 µM.

What about the GI50 [49] of the same compound?
The GI50 was 4.74 µM.

And the TGI [49]?
The TGI was 22.5 µM.

And the GI50 [50]?
Its GI50 is 2.92 µM.

What about the TGI [50] of the same compound?
The TGI was 13.7 µM.

And the GI50 [51]?
Its GI50 is 2.16 µM.

And the TGI [51]?
The TGI was 5.69 µM.

And the GI50 [52]?
Its GI50 is 3.34 µM.

And the TGI [52]?
The TGI was 15.7 µM.

And the GI50 [53]?
The GI50 was 15.4 µM.

And the TGI [53]?
The TGI was 65.8 µM.

What about the GI50 [54] of the same compound?
The GI50 was 10.2 µM.

What about the TGI [54] of the same compound?
Its TGI is 29.5 µM.

What about the GI50 [55] of the same compound?
The GI50 was 3.21 µM.

What about the TGI [55] of the same compound?
The TGI was 19.2 µM.
